From patent US20250339569A1, “CARBONIC ANHYDRASE IX LIGANDS” (priority 2021, published 2025)
Read-outs that look alike come from different tables or passages of the source. Starred links: 1 amine or outer side, 2 acyl side, 3 side chain; linkers in the order of their positions; H or OH if unused. Positions of bridges follow the written chain, without caps; N, C: chain ends. Non-standard residues stand in square brackets, D forms with d. Residues, ends and D or L forms follow the SMILES beside them. *: point of attachment. X16 = NC(=O)[C@H](CCCCNC(=O)CN1CCN(CC(=O)O)CCN(CC(=O)O)CCN(CC(=O)O)CC1)NC(=O)CCC(=O)NCCCOCCOCCOCCCN*; NH(CH2)5NHDOTA = O=C(O)CN1CCN(CC(=O)O)CCN(CC(=O)NCCCCCN*)CCN(CC(=O)O)CC1; DOTA = O=C(O)CN1CCN(CC(=O)O)CCN(CC(=O)*)CCN(CC(=O)O)CC1; mXylylene = c1cc(C[*:1])cc(C[*:2])c1; Trx = NC[C@H]1CC[C@H](C(=O)O)CC1; tBuAla = CC(C)(C)C[C@H](N)C(=O)O; Ac6c = NC1(C(=O)O)CCCCC1; Dap = NC[C@H](N)C(=O)O; Nlys = NCCCCNCC(=O)O

Assays:
NEP = target: T1, NEP (Homo sapiens, UniProt P08473); experiment: Proteolytic stability assay against NEP; assay type: in vitro ADME; settings: human, recombinant soluble human NEP, 100 ng/mL NEP, 10 μM compound, 37°C, read-out: % intact compound remaining after 24 h incubation
T1 construct: Recombinant soluble human NEP; purchased BioTechne, Wiesbaden, Germany
Procedure: (§1) To assess the stability of compounds against NEP, the compounds were subjected to an in vitro assay based on the protocol described by Edelson et al. (Edelson et al., Pulmonary pharmacology & therapeutics, 2013, 26, 229-238).
(§2) Recombinant soluble human NEP (BioTechne, Wiesbaden, Germany) at a concentration of 100 ng/mL was mixed with the compound (10 μM) and a stable internal standard (10 μM) and incubated at 37° C. After several time points, samples were taken and analyzed with LC-MS.
(§3) The activity of NEP was examined using a commercially available chromogenic substrate of NEP.

[1] = target: T2, CAIX-expressing human HT-29 colorectal cancer cells (Homo sapiens, UniProt Q16790); experiment: FACS binding assay (IC50 determination, competition with tracer 3BP-2776 or 3BP-4149); settings: 4° C., 1 hour, read-out: pIC50 category (activity) (converted)
T2 construct: CAIX-expressing human HT-29 colorectal cancer cells; host or cells: HT-29 human colorectal cancer cells
Procedure, shortened: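 HT-29 cells in FACS buffer (PBS, 1% FCS) at 500.000 cells/ml were exposed to compounds competing with a labelled tracer, with biotinylated compounds detected by 1 μg/mL APC-streptavidin for 30 min on ice. APC/Cy5 median fluorescence was read by flow cytometry and IC50 derived by 4PL fit.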

[2] = Plasma stability assay, mouse plasma; settings: for remaining at 4 h, […]: mouse, plasma (K2EDTA); for % intact compound remaining (incubation time): mouse plasma, 37°C
[3] = target: T3, human carbonic anhydrase IX (hCAIX-Fc) (Homo sapiens, UniProt Q16790); experiment: Surface plasmon resonance assay with hCAIX-Fc; assay type: binding; settings: 25° C.; for t1/2 category (activity): SPR dissociation half-life, hCAIX-Fc; for Kd: SPR, hCAIX-Fc captured, read-out: pKD category (activity) (converted)
T3 construct: purchased SinoBliological (Sino Biological) 10107-H02H

[4] = target: T4, Recombinant soluble human NEP (Homo sapiens, UniProt P08473); experiment: Proteolytic stability assay against NEP; assay type: in vitro ADME; settings: 100 ng/mL NEP, 10 μM compound, 37°C
T4 construct: Recombinant soluble human NEP; purchased BioTechne, Wiesbaden, Germany
Procedure: as §1, §2, §3

[5] = FACS competition on HT-29 cells, Tracer ID 3BP-2776 (10 nM, biotin-labeled)

T1 sequence (P08473 52-750 limits assumed): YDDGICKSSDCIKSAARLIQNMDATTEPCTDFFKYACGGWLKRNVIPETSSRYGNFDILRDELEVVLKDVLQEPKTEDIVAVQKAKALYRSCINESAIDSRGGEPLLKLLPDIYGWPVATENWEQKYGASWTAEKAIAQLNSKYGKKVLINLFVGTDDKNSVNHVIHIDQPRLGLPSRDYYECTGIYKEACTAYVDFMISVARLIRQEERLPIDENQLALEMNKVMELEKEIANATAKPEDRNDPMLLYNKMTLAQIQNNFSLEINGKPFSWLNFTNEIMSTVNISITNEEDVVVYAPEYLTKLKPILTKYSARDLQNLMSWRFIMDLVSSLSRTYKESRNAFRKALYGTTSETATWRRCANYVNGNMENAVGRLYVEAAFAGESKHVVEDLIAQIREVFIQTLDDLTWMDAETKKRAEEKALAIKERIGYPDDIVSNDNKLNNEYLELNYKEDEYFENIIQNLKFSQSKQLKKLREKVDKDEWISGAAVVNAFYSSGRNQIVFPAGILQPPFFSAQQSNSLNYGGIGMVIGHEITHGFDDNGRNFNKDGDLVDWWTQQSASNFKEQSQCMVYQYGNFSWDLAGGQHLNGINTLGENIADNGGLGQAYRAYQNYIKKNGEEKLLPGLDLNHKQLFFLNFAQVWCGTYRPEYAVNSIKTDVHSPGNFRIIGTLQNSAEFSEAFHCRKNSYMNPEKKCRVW
T4 sequence (P08473 52-750 limits assumed): as above

Compound	remaining at 24 h, 10 μM (NEP) [%]	IC50 [1, 5] [nM]	remaining at 4 h, […] [2] [%]	t1/2 category (activity) [3]	Kd [3] [nM]	further results
CC(=O)N[C@H](C(=O)N[C@@H](Cc1ccc(O)cc1)C(=O)N[C@H]1CSCc2cccc(c2)CSC[C@@H](C(N)=O)NC(=O)[C@H](CCC(N)=O)NC(=O)[C@H](Cc2c[nH]c3ccccc23)NC(=O)[C@H]([C@@H](C)O)NC(=O)[C@H](CC(C)C)NC(=O)[C@H](Cc2c[nH]c3ccccc23)NC(=O)[C@H](CC(=O)O)NC(=O)CNC(=O)[C@H](CCC(=O)O)NC1=O)C(C)C [3BP-2837] (Ac-VYCEGDWLTWQC-NH2; linker 3-12 via mXylylene)	> 95	< 10	> 95	–	–	–
CC(=O)N[C@H](C(=O)N[C@@H](Cc1ccc(O)cc1)C(=O)N[C@H]1CSCc2cccc(c2)CSC[C@@H](C(=O)NCCCOCCOCCOCCCNC(=O)CCC(=O)N[C@@H](CCCCNC(=O)CN2CCN(CC(=O)O)CCN(CC(=O)O)CCN(CC(=O)O)CC2)C(N)=O)NC(=O)[C@H](CCC(N)=O)NC(=O)[C@H](Cc2c[nH]c3ccccc23)NC(=O)[C@H]([C@@H](C)O)NC(=O)[C@H](CC(C)C)NC(=O)[C@H](Cc2c[nH]c3ccccc23)NC(=O)[C@H](CC(=O)O)NC(=O)CNC(=O)[C@H](CCC(=O)O)NC1=O)C(C)C [3BP-2949] (Ac-VYCEGDWLTWQC-X16; linker 3-12 via mXylylene; N-terminus and C-terminus assumed)	82	–	95	–	–	–
CC(=O)N[C@H](C(=O)N[C@@H](Cc1ccc(O)cc1)C(=O)N[C@H]1CSCc2cccc(c2)CSC[C@@H](C(N)=O)NC(=O)[C@H](C)NC(=O)[C@H](Cc2c[nH]c3ccccc23)NC(=O)[C@H]([C@@H](C)O)NC(=O)[C@H](CC(C)C)NC(=O)[C@H](Cc2c[nH]c3ccccc23)NC(=O)[C@H](CC(=O)O)NC(=O)CNC(=O)[C@H](CCC(=O)O)NC1=O)C(C)C [3BP-3058] (Ac-VYCEGDWLTWAC-NH2; linker 3-12 via mXylylene)	> 95	< 10	95	C (t1/2 between 2.1 and 5.0 minutes)	< 10	–
CC(=O)N[C@H](C(=O)N[C@@H](Cc1ccc(O)cc1)C(=O)N[C@H]1CSCc2cccc(c2)CSC[C@@H](C(N)=O)NC(=O)[C@H](C)NC(=O)[C@H](Cc2c[nH]c3ccccc23)NC(=O)[C@H]([C@@H](C)O)NC(=O)[C@H](CC(C)C)NC(=O)[C@H](Cc2c[nH]c3ccccc23)NC(=O)[C@H](CC(=O)O)NC(=O)[C@H]2CCCN2C(=O)[C@H](CCC(=O)O)NC1=O)C(C)C [3BP-3282] (Ac-VYCE[dP]DWLTWAC-NH2; linker 3-12 via mXylylene)	> 95	< 10	–	A (t1/2>15.0 minutes)	< 10	–
CC(=O)N[C@@H](CCCCNC(=O)CN1CCN(CC(=O)O)CCN(CC(=O)O)CCN(CC(=O)O)CC1)C(=O)N[C@H](C(=O)N[C@@H](Cc1ccc(O)cc1)C(=O)N[C@H]1CSCc2cccc(c2)CSC[C@@H](C(N)=O)NC(=O)[C@H](C)NC(=O)[C@H](Cc2c[nH]c3ccccc23)NC(=O)[C@H]([C@@H](C)O)NC(=O)[C@H](CC(C)C)NC(=O)[C@H](Cc2c[nH]c3ccccc23)NC(=O)[C@H](CC(=O)O)NC(=O)[C@H]2CCCN2C(=O)[C@H](CCC(=O)O)NC1=O)C(C)C [3BP-3427] (Ac-K(DOTA)VYCE[dP]DWLTWAC-NH2; linker 4-13 via mXylylene)	–	< 10	–	–	–	% intact compound remaining after 24 h incubation [4]: >95%; % intact compound remaining (incubation time) ([2]; 4 h): >95%
CC(=O)N[C@H](C(=O)N[C@@H](Cc1ccc(O)cc1)C(=O)N[C@H]1CSCc2cccc(c2)CSC[C@@H](C(=O)NCCCCCNC(=O)CN2CCN(CC(=O)O)CCN(CC(=O)O)CCN(CC(=O)O)CC2)NC(=O)[C@H](C)NC(=O)[C@H](Cc2c[nH]c3ccccc23)NC(=O)[C@H]([C@@H](C)O)NC(=O)[C@H](CC(C)C)NC(=O)[C@H](Cc2c[nH]c3ccccc23)NC(=O)[C@H](CC(=O)O)NC(=O)[C@H]2CCCN2C(=O)[C@H](CCC(=O)O)NC1=O)C(C)C [3BP-3434, Ac-Val-Tyr-[Cys(3MeBn)-Glu-pro-Asp-Trp-Leu-Thr-Trp-Ala-Cys]-Ape-NH-DOTA] (Ac-VYCE[dP]DWLTWAC-{NH(CH2)5NHDOTA}; linker 3-12 via mXylylene)	–	< 10	–	–	–	% intact compound remaining after 24 h incubation [4]: >95%; % intact compound remaining (incubation time) ([2]; 4 h): >95%
CC(=O)N[C@H](C(=O)N[C@@H](Cc1ccc(O)cc1)C(=O)N[C@H]1CSCc2cccc(c2)CSC[C@@H](C(N)=O)NC(=O)[C@H](CO)NC(=O)[C@H](Cc2c[nH]c3ccccc23)NC(=O)[C@H]([C@@H](C)O)NC(=O)[C@H](CC(C)(C)C)NC(=O)[C@H](Cc2c[nH]c3ccccc23)NC(=O)[C@H](CC(=O)O)NC(=O)[C@H]2CCCN2C(=O)[C@H](CCC(=O)O)NC1=O)C(C)C [3BP-3491] (Ac-VYCE[dP]DW[tBuAla]TWSC-NH2; linker 3-12 via mXylylene)	> 95	< 10	> 95	–	–	–
CC(=O)N[C@H](C(=O)N[C@@H](Cc1ccc(O)cc1)C(=O)N[C@H]1CSCc2cccc(c2)CSC[C@@H](C(N)=O)NC(=O)[C@H](C)NC(=O)[C@H](Cc2c[nH]c3ccccc23)NC(=O)[C@H]([C@@H](C)O)NC(=O)C2(CCCCC2)NC(=O)[C@H](Cc2c[nH]c3ccccc23)NC(=O)[C@H](CC(=O)O)NC(=O)[C@H]2CCCN2C(=O)[C@H](CCC(=O)O)NC1=O)C(C)C [3BP-3503] (Ac-VYCE[dP]DW[Ac6c]TWAC-NH2; linker 3-12 via mXylylene)	> 95	< 10	> 95	–	–	–
CC(=O)N[C@H](C(=O)N[C@@H](Cc1ccc(O)cc1)C(=O)N[C@H]1CSCc2cccc(c2)CSC[C@@H](C(N)=O)NC(=O)[C@H](C)NC(=O)[C@H](Cc2c[nH]c3ccccc23)NC(=O)[C@H]([C@@H](C)O)NC(=O)[C@H](CC(C)C)NC(=O)[C@H](Cc2c[nH]c3ccccc23)NC(=O)[C@H](CC(=O)O)NC(=O)CN(CCCCNC(=O)CN2CCN(CC(=O)O)CCN(CC(=O)O)CCN(CC(=O)O)CC2)C(=O)[C@H](CCC(=O)O)NC1=O)C(C)C [3BP-3562, Ac-Val-Tyr-[Cys(3MeBn)-Glu-Nlys(DOTA)-Asp-Trp-Leu-Thr-Trp-Ala-Cys]-NH2] (Ac-VYCE[Nlys](DOTA)DWLTWAC-NH2; linker 3-12 via mXylylene)	> 95	< 10	89	–	< 10	–
CC(C)C[C@@H]1NC(=O)[C@H](Cc2c[nH]c3ccccc23)NC(=O)[C@H](CC(=O)O)NC(=O)[C@H]2CCCN2C(=O)[C@H](CCC(=O)O)NC(=O)[C@@H]2CSCc3cccc(c3)CSC[C@@H](C(N)=O)NC(=O)[C@H](CNC(=O)C[C@H](NC(=O)[C@H]3CC[C@H](CNC(=O)CN4CCN(CC(=O)O)CCN(CC(=O)O)CCN(CC(=O)O)CC4)CC3)C(=O)N2)NC(=O)[C@H](Cc2c[nH]c3ccccc23)NC(=O)[C@H]([C@@H](C)O)NC1=O [3BP-4258] ({DOTA-Trx}-DCE[dP]DWLTW[Dap]C-NH2; lactam 1-10; linker 2-11 via mXylylene)	–	–	–	C (t1/2 between 2.1 and 5.0 minutes)	< 10	IC50 ([1]; FACS binding assay, HT-29 cells, competition with tracer 3BP-2776 (10 nM, biotin-labeled)): < 10 nM; % intact compound remaining (incubation time) ([2]; 24 h): 93%
CC(C)C[C@@H]1NC(=O)[C@H](Cc2c[nH]c3ccccc23)NC(=O)[C@H](CC(=O)O)NC(=O)[C@H]2CCCN2C(=O)[C@H](CCC(=O)O)NC(=O)[C@@H]2CSCc3cccc(c3)CSC[C@@H](C(N)=O)NC(=O)[C@H](CNC(=O)C[C@H](NC(=O)[C@@H](NC(=O)CN3CCN(CC(=O)O)CCN(CC(=O)O)CCN(CC(=O)O)CC3)C(C)C)C(=O)N2)NC(=O)[C@H](Cc2c[nH]c3ccccc23)NC(=O)[C@H]([C@@H](C)O)NC1=O [3BP-4264] ({DOTA}-VDCE[dP]DWLTW[Dap]C-NH2; lactam 2-11; linker 3-12 via mXylylene)	–	–	–	A (t1/2>15.0 minutes)	< 10	IC50 ([1]; FACS binding assay, HT-29 cells, competition with tracer 3BP-4149 (3 nM, Cy5-labeled)): < 10 nM; % intact compound remaining (incubation time) ([2]; 24 h): >95%
